Test results published in patent US4663344A, “Anti-inflammatory and analgesic 3-hydroxybenzo[b]thiophene derivatives, compositions, and method of use therefor” (Merck & Co., Inc., priority 1985, dated 1987).

Molecular target: T1, RBL Cell 5-Lipoxygenase (Rattus norvegicus, UniProt P12527)
T1 construct: RBL Cell 5-Lipoxygenase; endogenous in cells; host or cells: RBL cells
T1 sequence (P12527 1-673): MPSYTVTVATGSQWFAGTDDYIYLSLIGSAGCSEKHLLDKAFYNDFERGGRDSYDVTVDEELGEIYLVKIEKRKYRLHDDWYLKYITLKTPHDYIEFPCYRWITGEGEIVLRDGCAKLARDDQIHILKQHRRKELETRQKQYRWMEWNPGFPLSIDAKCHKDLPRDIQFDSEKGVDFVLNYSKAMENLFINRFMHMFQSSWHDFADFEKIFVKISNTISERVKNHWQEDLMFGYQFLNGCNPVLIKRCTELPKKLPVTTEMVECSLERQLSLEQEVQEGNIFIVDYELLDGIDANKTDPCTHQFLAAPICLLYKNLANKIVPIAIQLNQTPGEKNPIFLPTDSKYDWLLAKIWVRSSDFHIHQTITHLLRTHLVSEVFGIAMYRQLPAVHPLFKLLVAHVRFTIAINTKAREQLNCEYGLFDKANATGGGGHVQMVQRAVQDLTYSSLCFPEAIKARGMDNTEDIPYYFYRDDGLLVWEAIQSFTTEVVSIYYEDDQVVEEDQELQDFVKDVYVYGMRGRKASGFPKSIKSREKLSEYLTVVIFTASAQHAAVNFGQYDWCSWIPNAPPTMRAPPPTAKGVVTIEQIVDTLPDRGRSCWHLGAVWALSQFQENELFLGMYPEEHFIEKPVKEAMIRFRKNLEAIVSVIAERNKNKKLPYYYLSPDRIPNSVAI
Assay: Inhibition of RBL Cell 5-Lipoxygenase
Format: biochemical
Conditions: read-out: Percent Inhibition (conc.)
Source text: Protocol published in R. W. Egan et al., "Advances in Prostaglandin, Thromboxane, and Leukotriene Research," Vol. 11 (edited by B. Samuelson et al., Raren Press, N.Y., 1983), p. 151.

Structure (SMILES)	inhibition at 15 µM [%]	other results
CCCCc1sc2ccc(Cl)cc2c1OC(C)=O [Example 1, 3-Acetoxy-2-Butyl-5-Chlorobenzo[b]thiophene]	> 95	–
CC(=O)Oc1c(Cc2ccccc2)sc2ccc(Cl)cc12 [Example 2, 3-Acetoxy-2-Benzyl-5-Chlorobenzo[b]thiophene]	> 95	–
Oc1c(-c2ccccc2)sc2ccc(C(F)(F)F)cc12 [Example 4, 3-Hydroxy-2-phenyl-5-trifluoromethylbenzo[b]thiophene]	–	inhibition at 5 µM (5 μM): > 95%
CC(=O)Oc1c(-c2ccccc2)sc2ccc(C(F)(F)F)cc12 [Example 5, 3-Acetoxy-2-Phenyl-5-Trifluoromethylbenzo[b]thiophene]	> 95	–
COc1cccc2sc(-c3ccccc3)c(O)c12 [Example 6, 3-Hydroxy-4-Methoxy-2-Phenylbenzo[b]thiophene]	> 95	–
CC(=O)Oc1cccc2sc(-c3ccccc3)c(OC(C)=O)c12 [Example 7, 3,4-Diacetoxy-2-Phenylbenzo[b]thiophene]	–	inhibition at 1 µM: > 95%
Oc1cccc2sc(-c3ccccc3)c(O)c12 [Example 8, 3,4-dihydroxy-2-phenylbenzo[b]thiophene]	> 95	–
Oc1c(-c2cccc(C(F)(F)F)c2)sc2ccc(C(F)(F)F)cc12 [Example 11, 3-Hydroxy-5-Trifluoromethyl-2-(m-trifluoromethylphenyl)-Benzo[b]thiophene]	> 95	–
Oc1c(-c2cccc(Cl)c2)sc2ccc(C(F)(F)F)cc12 [Example 12, 3-Hydroxy-2-(m-chlorophenyl)-5-trifluoromethyl-benzo[b]thiophene]	> 95	–
COc1ccc(-c2sc3ccc(C(F)(F)F)cc3c2O)cc1 [Example 15, 3-Hydroxy-2-(p-methoxyphenyl)-5-trifluoromethylbenzo[b]thiophene]	> 95	–
Cc1cccc(-c2sc3ccc(C(F)(F)F)cc3c2O)c1 [Example 16, 3-Hydroxy-2-(m-methylphenyl)-5-trifluoromethylbenzo[b]thiophene]	–	inhibition at 1 µM: > 95%
Oc1c(-c2ccccc2)sc2ccc(Cl)cc12 [Example 18, 5-Chloro-3-hydroxy-2-phenylbenzo[b]thiophene]	> 95	–
COC(=O)C=Cc1sc2ccccc2c1O [Example 20, Methyl 3-(3-hydroxybenzo[b]thiophen-2-yl)acrylate]	–	inhibition at 3.6 µM (3.6 μM): 100%
COC(=O)C=Cc1sc2ccccc2c1OC(C)=O [Example 21, Methyl 3(3-acetoxybenzo[b]thiophen-2-yl)acrylate]	–	inhibition at 0.036 µM (0.036 μM): 71%
COC(=O)CCc1sc2ccc(C(F)(F)F)cc2c1OC(C)=O [Example 22]	–	inhibition at 0.06 µM (0.06 μM): > 95%
CC(=O)Oc1c(C)sc2ccc(C(F)(F)F)cc12 [Example 23, 2-Methyl-3-Acetoxy-5-trifluoromethylbenzo[b]thiophene]	–	inhibition at 0.4 µM (0.4 μM): 100%
CC(=O)Oc1c(CSc2nc(-c3ccccc3)c(-c3ccccc3)[nH]2)sc2ccccc12 [Example 25, 2-(3-acetoxybenzo[b]thien-2-ylmethyl)thio-4,5-diphenylimidazole]	–	inhibition at 22 µM: 52%
CC(=O)Oc1c(C=C(c2ccccc2)c2ccccc2)sc2ccc(C(F)(F)F)cc12 [Example 27, 2-(2,2-diphenylethenyl)-3-acetoxy-5-trifluoromethyl benzo[b]thiophene]	–	inhibition at 22 µM: 95%
